Data taken from publication PMC6875038, “Comparative Pharmacokinetic Studies of Four Ginsenosides in Rat Plasma by UPLC-MS/MS after Oral Administration of Panax quinquefolius-Acorus gramineus and Panax quinquefolius Extracts” (Journal of Analytical Methods in Chemistry, 2019).
Where two headings read alike, the source gives them in different places.

Columns and labels:
[1] = Pharmacokinetics of four ginsenosides in rat plasma after oral administration of PQ-AG and PQ extracts (UPLC-MS/MS); assay type: in vivo; settings: male SD rats, n = 6, mean ± SD; for AUC: male, SD, po
Procedure: Chromatographic analysis was performed on a Waters Acquity UPLC system (Waters Corp., Milford, MA, USA). An ACQUITY UPLC BEH C18 (100 × 2.1 mm, 1.7 μm) column was used for all analytes. The column temperature was at 35°C. The mobile phase was composed of formic acid aqueous solution (A, 0.1%) and acetonitrile (B) at a gradient elution of 25% B at 0–0.5 min, 25%–50% B at 0.5–2.0 min, 50–60% B at 2.0–5.0 min, 60–25% B at 5.0–5.5 min, and 25% B at 5.5–7.0 min, with a flow rate of 0.2 mL/min.
MS detection was performed using the Xevo Triple Quadruple MS (Waters Corp.) equipped with an ESI source in both positive and negative ionization modes. The experimental parameters were set as follows: CV 2.80 kV; desolvation temperature 350°C; source temperature […]; cone gas flow 50 L/h; and desolvation gas flow 650 L/h. The detection was carried out using the MRM scan mode. All experimental data were collected in centroid mode using Masslynx 4.1 software (Waters Corp., Milford, USA), and postacquisition quantitative analysis was conducted using Target Lynx program (Waters Corp., Milford, USA).
Plasma specimens (200 μL) were mixed with IS solution (20 μL, 720 ng/mL) in an Eppendorf tube and centrifuged at 4, 000 rpm for 15 min at 4°C. Then, the supernatant was removed from plasma sample. Hydrochloric acid (4 μL) was added into 200 μL plasma sample, and then, the mixture was vortexed for 1 min. Waters OASIS HLB SPE C18 columns (Waters, USA) were used to remove the proteins in plasma samples, and it was preactivated by 3 mL methanol and 3 mL water. Then, 2 mL of 100% methanol was used to wash the column, and the eluate was collected and dried under nitrogen gas (45°C). Subsequently, 100 μL of 100% methanol was used to redissolve the residues, followed by centrifugation at 13, 000 rpm for 15 min at 4°C. Before UPLC-MS/MS analysis, the sample was finally filtered through a 0.22 μm membrane filter.
DAS 3.2 software (Mathematical Pharmacology Professional Committee of China, Shanghai, China, 2011) was applied for the analysis of concentration-time data to investigate the pharmacokinetic parameters of four ginsenosides in various groups. Data were presented as the mean ± SD (standard deviation) with triplicate measurements. A significance level was set at P < 0.05.
Male SD rats were randomly and evenly divided into two groups (n = 6 per group) in pharmacokinetic studies. To evaluate the compatible effect of AG upon PQ treatment, rats were given PQ at a dosage of 0.54 g/kg (equivalent to the amount of raw drug 0.54 g) in the PQ group. PQ-AG was combined with an equal proportion to prepare the mixed extract. The oral dosage in rats was 1.08 g/kg (equivalent to the amount of the raw drug including 0.54 g AG and 0.54 g PQ) in the PQ-AG group. Blood samples were collected at specific time points of 0, 0.25, 0.5, 1.0, 1.5, 2.0, 4.0, 6.0, 8.0, 12.0, 16.0, 24.0, and 48.0 h. All the plasma samples were obtained by centrifuging the blood samples at 3, 500 rpm for 10 min, then labeled and frozen at −80°C prior to analysis.

[2] = Stability of the ginsenosides in rat plasma (QC samples); assay type: in vitro ADME; settings: for Re (%) Postpreparation / Recovery (%) Postpreparation: autosampler 4°C for 12 h; for Re (%) Short term / Recovery (%) Short term / Re (%) Freeze-thaw cycles / Recovery (%) Freeze-thaw cycles: rat plasma; for Re (%) Short term / Recovery (%) Short term: 1 month at −80°C; for Re (%) Freeze-thaw cycles / Recovery (%) Freeze-thaw cycles: three freeze-thaw cycles at −80°C
Procedure: The standard stock solution was prepared in methanol with four ginsenosides at the final concentration of 1.14 mg/mL for Rb1, 0.10 mg/mL for Rb2, 0.78 mg/mL for Rd, and 1.58 mg/mL for Re. The working standard solution at required concentration was obtained by continuously diluting the stock solution. The IS stock solution was also prepared with methanol at a final concentration of 720 ng/mL. Calibration samples were prepared by mixing solutions of standard mixture, internal standard, and methanol with rat blank plasma at the final concentrations of 3.6, 7.2, 35.6, 71.2, 142.4, 284.8, 569.5, and 1, 139.0 ng/mL for Rb1, 1.6, 3.2, 6.3, 31.3, 62.5, 125.0, 250.0, and 500.0 ng/mL for Rb2, 1.2, 2.4, 4.9, 24.4, 48.8, 97.6, 195.1, and 390.2 ng/mL for Rd, and 2.5, 4.9, 9.9, 49.3, 98.6, 197.1, 394.3, and 788.5 ng/mL for Re. QC samples were also prepared with the same method at low, middle, and high concentrations (7.2, 142.4, and 911.4 ng/mL for Rb1, 3.2, 62.5, and 400.0 ng/mL for Rb2, 2.4, 48.8, and 312.2 ng/mL for Rd, 5.0, 98.6, and 630.8 ng/mL for Re). All solutions were stored at 4°C. The stability of the four analytes was determined by exposing plasma samples to QC at three concentration levels in six replicates. Samples were stored at −80°C for 1 month to assess the short-term storage stability. Freeze-thaw stability was performed after three freeze-thaw cycles at −80°C during three consecutive days. To evaluate the postpreparative stability, extracted QC samples were kept in the autosampler (4°C) for 12 h before analysis. The stability assessment of these samples was calibrated with freshly prepared standard as previously described.

[3] = PQ group: oral PQ extract 0.54 g/kg
[4] = PQ-AG group: oral PQ-AG extract 1.08 g/kg
[5] = 0.54 g/kg, PQ group: oral PQ extract 0.54 g/kg, read-out: AUC0⟶t
[6] = 0.54 g/kg, PQ group: oral PQ extract 0.54 g/kg, read-out: AUC0⟶∞
[7] = 1.08 g/kg, PQ-AG group: oral PQ-AG extract 1.08 g/kg, read-out: AUC0⟶t
[8] = 1.08 g/kg, PQ-AG group: oral PQ-AG extract 1.08 g/kg, read-out: AUC0⟶∞
[9] = extracted high QC (911.4 Rb1, 400.0 Rb2, 312.2 Rd, 630.8 Re ng/mL)
[10] = extracted low QC (7.2 Rb1, 3.2 Rb2, 2.4 Rd, 5.0 Re ng/mL)
[11] = extracted middle QC (142.4 Rb1, 62.5 Rb2, 48.8 Rd, 98.6 Re ng/mL)
[12] = high QC (911.4 Rb1, 400.0 Rb2, 312.2 Rd, 630.8 Re ng/mL)
[13] = low QC (7.2 Rb1, 3.2 Rb2, 2.4 Rd, 5.0 Re ng/mL)
[14] = middle QC (142.4 Rb1, 62.5 Rb2, 48.8 Rd, 98.6 Re ng/mL)

Row | SMILES | Cmax [1, 3] [ng/mL] | Tmax [1, 3] [h] | half-life [1, 3] [h] | Cmax [1, 4] [ng/mL] | Tmax [1, 4] [h] | half-life [1, 4] [h] | AUC [1, 5] [ng·h/mL] | AUC [1, 6] [ng·h/mL] | AUC [1, 7] [ng·h/mL] | AUC [1, 8] [ng·h/mL] | Re (%) Postpreparation [2, 9] [%] | Recovery (%) Postpreparation [2, 9] [%] | Re (%) Postpreparation [2, 10] [%] | Recovery (%) Postpreparation [2, 10] [%] | Re (%) Postpreparation [2, 11] [%] | Recovery (%) Postpreparation [2, 11] [%] | Re (%) Short term [2, 12] [%] | Recovery (%) Short term [2, 12] [%] | Re (%) Freeze-thaw cycles [2, 12] [%] | Recovery (%) Freeze-thaw cycles [2, 12] [%] | other results
1 | CC(C)=CCC[C@](C)(O[C@@H]1O[C@H](CO[C@@H]2O[C@H](CO)[C@@H](O)[C@H](O)[C@H]2O)[C@@H](O)[C@H](O)[C@H]1O)[C@H]1CC[C@]2(C)[C@@H]1[C@H](O)C[C@@H]1[C@@]3(C)CC[C@H](O[C@@H]4O[C@H](CO)[C@@H](O)[C@H](O)[C@H]4O[C@@H]4O[C@H](CO)[C@@H](O)[C@H](O)[C@H]4O)C(C)(C)[C@@H]3CC[C@]12C [Rb1] | 461 ± 15.9 | 7 ± 1.1 | 15.6 ± 1.52 | 600 ± 53.6 | 6.67 ± 1.03 | 18.5 ± 2.61 | 5980 ± 313 | 6150 ± 328 | 8130 ± 454 | 8410 ± 488 | −6.47 | 96.10 | 6.86 | 101.85 | 9.35 | 101.65 | 7.53 | 101.65 | 7.75 | 101.95 | Re (%) Short term [2, 13]: −7.55%; Recovery (%) Short term [2, 13]: 96.32%; Re (%) Freeze-thaw cycles [2, 13]: −6.90%; Recovery (%) Freeze-thaw cycles [2, 13]: 97.66%; Re (%) Short term [2, 14]: 7.95%; Recovery (%) Short term [2, 14]: 100.48%; Re (%) Freeze-thaw cycles [2, 14]: −4.48%; Recovery (%) Freeze-thaw cycles [2, 14]: 95.35%
2 | CC(C)=CCC[C@](C)(O[C@@H]1O[C@H](CO[C@@H]2OC[C@H](O)[C@H](O)[C@H]2O)[C@@H](O)[C@H](O)[C@H]1O)[C@H]1CC[C@]2(C)[C@@H]1[C@H](O)C[C@@H]1[C@@]3(C)CC[C@H](O[C@@H]4O[C@H](CO)[C@@H](O)[C@H](O)[C@H]4O[C@@H]4O[C@H](CO)[C@@H](O)[C@H](O)[C@H]4O)C(C)(C)[C@@H]3CC[C@]12C [Rb2] | 160 ± 18.8 | 7.67 ± 0.82 | 13.3 ± 1.58 | 264 ± 24.5 | 7.67 ± 0.82 | 15.6 ± 5.21 | 1210 ± 99.2 | 1230 ± 99.6 | 2460 ± 243 | 2520 ± 289 | 7.90 | 99.63 | −9.72 | 93.37 | 2.39 | 99.94 | 7.11 | 98.74 | 9.36 | 103.82 | Re (%) Short term [2, 13]: −9.70%; Recovery (%) Short term [2, 13]: 93.67%; Re (%) Freeze-thaw cycles [2, 13]: −9.69%; Recovery (%) Freeze-thaw cycles [2, 13]: 94.21%; Re (%) Short term [2, 14]: −2.12%; Recovery (%) Short term [2, 14]: 95.33%; Re (%) Freeze-thaw cycles [2, 14]: 6.77%; Recovery (%) Freeze-thaw cycles [2, 14]: 100.41%
